Experimental data: ChEMBL document CHEMBL5724914, “Linking interpersonal differences in gut microbiota composition and drug biotransformation activity” (2024)

Tests used:
[1] = (§1) The drug is tested on WLS-098 corresponding to human gut metagenome with ENA study accession number: PRJEB37062 and ENA sample accession number: ERS12561754 for biotransformation under anaerobic condition. The drug concentrations were measured over 9 timepoints collected between 0 and 24 hours of incubation by liquid-chromatography-coupled mass spectrometry (LC–MS); conditions: 2 µM
[2] = human gut metagenome, 24 h, 2 µM
[3] = as §1, with “WLS-082” for “WLS-098”, “ERS12561751” for “ERS12561754”; conditions: 2 µM
[4] = as §1, with “Z-017” for “WLS-098”, “mouse” for “human”, “ERS12561816” for “ERS12561754”; conditions: 2 µM
[5] = human gut metagenome, 24 h, 2 µM; remark: listed apart in the source
[6] = human gut metagenome, 24 h, 2 µM; remark: listed apart in the source
[7] = as §1, with “Z-011” for “WLS-098”, “mouse” for “human”, “ERS12561811” for “ERS12561754”; conditions: 2 µM
[8] = as §1, with “WLS-007” for “WLS-098”, “ERS12561742” for “ERS12561754”; conditions: 2 µM
[9] = as §1, with “WLS-006” for “WLS-098”, “ERS12561741” for “ERS12561754”; conditions: 2 µM
Also: call rule not given here.

Row | Structure (SMILES) | Bacterial Biotransformation [1] | Bacterial Biotransformation [2] | Bacterial Biotransformation [3] | Bacterial Biotransformation [4] | Bacterial Biotransformation [5] | Bacterial Biotransformation [6] | Bacterial Biotransformation [7] | Bacterial Biotransformation [8] | Bacterial Biotransformation [9]
1 | CN1CCC(OC(c2ccccc2)c2ccccc2)CC1 | Compound metabolized | Compound metabolized | Compound NOT metabolized | Compound NOT metabolized | Compound NOT metabolized | Compound NOT metabolized | Compound NOT metabolized | Compound NOT metabolized | Compound NOT metabolized
2 | CC1=C(CC(=O)O)c2cc(F)ccc2/C1=C\c1ccc([S+](C)[O-])cc1 (stereo not drawn) | Compound metabolized | Compound metabolized | Compound metabolized | Compound NOT metabolized | Compound metabolized | Compound metabolized | Compound NOT metabolized | Compound metabolized | Compound metabolized
3 | CCOC(=O)[C@H](CCc1ccccc1)N[C@@H](C)C(=O)N1Cc2ccccc2C[C@H]1C(=O)O | Compound metabolized | Compound metabolized | Compound metabolized | Compound NOT metabolized | Compound metabolized | Compound metabolized | Compound NOT metabolized | Compound metabolized | Compound metabolized
4 | N[C@@H](Cc1ccc(N(CCCl)CCCl)cc1)C(=O)O | Compound metabolized | Compound NOT metabolized |  |  | Compound metabolized | Compound metabolized | Compound metabolized | Compound metabolized | Compound metabolized
5 | CN(C)CCc1c[nH]c2ccc(CS(=O)(=O)N3CCCC3)cc12 [ALMOTRIPTAN] | Compound metabolized | Compound NOT metabolized | Compound NOT metabolized |  | Compound NOT metabolized | Compound NOT metabolized |  | Compound NOT metabolized | Compound NOT metabolized
6 | CCN1CCCC1CNC(=O)c1cc(S(=O)(=O)CC)c(N)cc1OC (stereo not drawn) [AMISULPRIDE] | Compound metabolized | Compound NOT metabolized | Compound NOT metabolized | Compound NOT metabolized | Compound NOT metabolized | Compound metabolized | Compound NOT metabolized | Compound NOT metabolized | Compound NOT metabolized
7 | CC(C)NCC(O)COc1ccc(CC(N)=O)cc1 (stereo not drawn) [ATENOLOL] | Compound metabolized | Compound metabolized | Compound NOT metabolized | Compound NOT metabolized | Compound NOT metabolized | Compound NOT metabolized | Compound NOT metabolized | Compound NOT metabolized | Compound NOT metabolized
8 | CCCCC(=O)O[C@]1(C(=O)CO)[C@@H](C)C[C@H]2[C@@H]3CCC4=CC(=O)C=C[C@]4(C)[C@@]3(F)[C@@H](O)C[C@@]21C [BETAMETHASONE VALERATE] | Compound NOT metabolized | Compound metabolized | Compound metabolized |  | Compound metabolized | Compound metabolized |  | Compound metabolized | Compound metabolized
9 | Cc1nc(Nc2ncc(C(=O)Nc3c(C)cccc3Cl)s2)cc(N2CCN(CCO)CC2)n1 [DASATINIB ANHYDROUS] | Compound metabolized | Compound metabolized | Compound metabolized |  | Compound NOT metabolized | Compound metabolized |  | Compound NOT metabolized | Compound metabolized
10 | CC(=O)OCC(=O)[C@@]1(OC(C)=O)[C@@H](C)C[C@H]2[C@@H]3C[C@H](F)C4=CC(=O)C=C[C@]4(C)[C@@]3(F)[C@@H](O)C[C@@]21C [DIFLORASONE DIACETATE] | Compound metabolized | Compound metabolized | Compound metabolized | Compound metabolized | Compound metabolized | Compound metabolized | Compound metabolized | Compound metabolized | Compound metabolized
11 | CN(C)CCC=C1c2ccccc2COc2ccccc21 [DOXEPIN] | Compound metabolized | Compound metabolized | Compound NOT metabolized | Compound NOT metabolized | Compound NOT metabolized | Compound metabolized | Compound NOT metabolized | Compound metabolized | Compound NOT metabolized
12 | C[C@]12CCC(=O)C=C1[C@@H]1C[C@@H]1[C@H]1[C@@H]3[C@@H]4C[C@@H]4[C@@]4(CCC(=O)O4)[C@@]3(C)CC[C@@H]12 [DROSPIRENONE] | Compound NOT metabolized | Compound metabolized | Compound metabolized | Compound metabolized | Compound metabolized | Compound metabolized | Compound NOT metabolized | Compound metabolized | Compound metabolized
13 | CNCC[C@H](Oc1cccc2ccccc12)c1cccs1 [DULOXETINE] | Compound metabolized | Compound metabolized | Compound NOT metabolized |  | Compound NOT metabolized | Compound NOT metabolized |  | Compound metabolized | Compound metabolized
14 | C#C[C@]1(OC(C)=O)CC[C@H]2[C@@H]3CCC4=C[C@@H](OC(C)=O)CC[C@@H]4[C@H]3CC[C@@]21C [ETHYNODIOL DIACETATE] | Compound metabolized | Compound metabolized | Compound metabolized | Compound metabolized | Compound NOT metabolized | Compound metabolized | Compound metabolized | Compound metabolized | Compound metabolized
15 | CC(C)c1c(CN(C)C(C)Cc2ccccc2)n(C)n(-c2ccccc2)c1=O (stereo not drawn) [FAMPROFAZONE] | Compound metabolized | Compound metabolized | Compound metabolized | Compound NOT metabolized | Compound metabolized | Compound metabolized | Compound metabolized | Compound metabolized | Compound metabolized
16 | COCCCC/C(=N\OCCN)c1ccc(C(F)(F)F)cc1.O=C(O)/C=C\C(=O)O [FLUVOXAMINE MALEATE] | Compound NOT metabolized | Compound NOT metabolized | Compound NOT metabolized |  | Compound NOT metabolized | Compound NOT metabolized |  | Compound NOT metabolized | Compound metabolized
17 | CN1CCN(C2=Nc3ccccc3Oc3ccc(Cl)cc32)CC1.O=C(O)CCC(=O)O [LOXAPINE SUCCINATE] | Compound NOT metabolized | Compound NOT metabolized | Compound NOT metabolized |  | Compound NOT metabolized | Compound NOT metabolized |  | Compound NOT metabolized | Compound NOT metabolized
18 | N#Cc1ccc2c(c1)N(CCCN1CCC(O)CC1)c1ccccc1S2 [PERICIAZINE] | Compound metabolized | Compound metabolized | Compound NOT metabolized |  | Compound metabolized | Compound NOT metabolized |  | Compound NOT metabolized | Compound NOT metabolized
19 | CNNCc1ccc(C(=O)NC(C)C)cc1 [PROCARBAZINE] | Compound metabolized | Compound metabolized |  |  | Compound NOT metabolized |  |  |  | 
20 | CN(C/C=C/C#CC(C)(C)C)Cc1cccc2ccccc12 [TERBINAFINE] | Compound NOT metabolized | Compound metabolized | Compound NOT metabolized | Compound NOT metabolized | Compound NOT metabolized |  | Compound NOT metabolized |  | 
21 | N#Cc1ccc2[nH]cc(CCCCN3CCN(c4ccc5oc(C(N)=O)cc5c4)CC3)c2c1 [VILAZODONE] | Compound metabolized |  | Compound metabolized | Compound NOT metabolized | Compound metabolized | Compound metabolized | Compound metabolized | Compound metabolized | Compound metabolized
